Experimental data as given in patent US20050208496A1, “Methods of testing for bronchial asthma or chronic obstructive pulmonary disease” (Genox Research, Inc., priority 2002, published 2005).
Like-named read-outs stand apart in the source and are kept apart here.

Tested on: respiratory epithelial cells
[1] = HG-U95E, lot 1, Day 3, AI (head as in Table 18)
[2] = HG-U95E, lot 1, Day 7, AI (no head printed, inferred)
[3] = HG-U95E, lot 2, Day 3, AI (no head printed, inferred)

IL-13: human IL-13 (Peprotech, Inc.) added to the medium at 50 ng/mL to stimulate respiratory epithelial cells
CRYM (38285_at) expression change upon IL-13 stimulation (HG-U95A, lot 2, Day 7, AI): −3.5 | CSPG2 (38112_g_at) expression change upon IL-13 stimulation (HG-U95A, lot 2, Day 7, AI): −2.5 | DHCR24 (36658_at) expression change upon IL-13 stimulation (HG-U95A, lot 2, Day 7, AI): −4.3 | DSG3 (33693_at) expression change upon IL-13 stimulation (HG-U95A, lot 2, Day 7, AI): −2.2 | E48 (36284_at) expression change upon IL-13 stimulation (HG-U95A, lot 2, Day 7, AI): −5.6 | EPHX1 (38790_at) expression change upon IL-13 stimulation (HG-U95A, lot 2, Day 7, AI): −5.1 | FACL2 (40082_at) expression change upon IL-13 stimulation (HG-U95A, lot 2, Day 7, AI): −2 | FMO3 (40665_at) expression change upon IL-13 stimulation (HG-U95A, lot 2, Day 7, AI): −4.3 | GLUL (40522_at) expression change upon IL-13 stimulation (HG-U95A, lot 2, Day 7, AI): −4.4 | GPX3 (770_at) expression change upon IL-13 stimulation (HG-U95A, lot 2, Day 7, AI): −2.8 | GSTA4 (40508_at) expression change upon IL-13 stimulation (HG-U95A, lot 2, Day 7, AI): −5.4 | HGNC, keratinocyte transglutaminase gene (35947_at) expression change upon IL-13 stimulation (HG-U95A, lot 2, Day 7, AI): −3.2 | KIAA0878 (32215_1_at) expression change upon IL-13 stimulation (HG-U95A, lot 2, Day 7, AI): −2.7 | KIAA1055 (39400_at) expression change upon IL-13 stimulation (HG-U95A, lot 2, Day 7, AI): −3 | LCE (40943_at) expression change upon IL-13 stimulation (HG-U95A, lot 2, Day 7, AI): −3.7 | LGALS1 (33412_at) expression change upon IL-13 stimulation (HG-U95A, lot 2, Day 7, AI): −6.2 | SCYD1 (823_at) expression change upon IL-13 stimulation (HG-U95A, lot 2, Day 7, AI): −24.6 | SDC1 (38127_at) expression change upon IL-13 stimulation (HG-U95A, lot 2, Day 7, AI): −2.9 | TGFBI (1385_at) expression change upon IL-13 stimulation (HG-U95A, lot 2, Day 7, AI): −4.9 | TNFAIP2 (38631_at) expression change upon IL-13 stimulation (HG-U95A, lot 2, Day 7, AI): −3.7 | AA199856 (72960_s_at) expression change upon IL-13 stimulation (HG-U95E, lot 1, Day 3, AI): 4.3 | AI859144, KIAA1127 (77546_at) expression change upon IL-13 stimulation (HG-U95E, lot 1, Day 3, AI): 4.2 | BAL (69619_at) expression change upon IL-13 stimulation (HG-U95E, lot 1, Day 3, AI): 3.5 | EHF (8S090_at) expression change upon IL-13 stimulation (HG-U95E, lot 1, Day 3, AI): 2.3 | EPSTI1 (90421_at) expression change upon IL-13 stimulation (HG-U95E, lot 1, Day 3, AI): 7.2 | FLJ20989 (91420_at) expression change upon IL-13 stimulation (HG-U95E, lot 1, Day 3, AI): 14.8 | FLJ22833 (67329_at) expression change upon IL-13 stimulation (HG-U95E, lot 1, Day 3, AI): 3.1 | GCNT3 (77751_at) expression change upon IL-13 stimulation (HG-U95E, lot 1, Day 3, AI): 4.9 | MFHAS1 (87816_g_at) expression change upon IL-13 stimulation (HG-U95E, lot 1, Day 3, AI): 3 | RPL4 (80675_at) expression change upon IL-13 stimulation (HG-U95E, lot 1, Day 3, AI): 2.2 | SCYA26 (90189_at) expression change upon IL-13 stimulation (HG-U95E, lot 1, Day 3, AI): 26.3 | H70665 (67357_at) expression change upon IL-13 stimulation [1]: 2.6 | SLC21A12 (87860_s_at) expression change upon IL-13 stimulation [1]: 2.7 | TBLR1 (87125_at) expression change upon IL-13 stimulation [1]: 2.8 | AA199856 (72960_s_at) expression change upon IL-13 stimulation (HG-U95E, lot 1, Day 3, IMM): 5.8 | AI859144, KIAA1127 (77546_at) expression change upon IL-13 stimulation (HG-U95E, lot 1, Day 3, IMM): 6.1 | AW024819 (72867_at) expression change upon IL-13 stimulation (HG-U95E, lot 1, Day 3, IMM): 4.2 | BAL (69619_at) expression change upon IL-13 stimulation (HG-U95E, lot 1, Day 3, IMM): 3.1 | EPSTI1 (90421_at) expression change upon IL-13 stimulation (HG-U95E, lot 1, Day 3, IMM): 9.9 | FLJ20989 (91420_at) expression change upon IL-13 stimulation (HG-U95E, lot 1, Day 3, IMM): 13.5 | GCNT3 (77751_at) expression change upon IL-13 stimulation (HG-U95E, lot 1, Day 3, IMM): 10.2 | RIG-1 (77749_at) expression change upon IL-13 stimulation (HG-U95E, lot 1, Day 3, IMM): 3.9 | SCYA26 (90189_at) expression change upon IL-13 stimulation (HG-U95E, lot 1, Day 3, IMM): 18.1 | EHF (85092_g_at) expression change upon IL-13 stimulation (HG-U95E, lot 1, Day 3, IMM (head as in Table 18)): 2.3 | AA199856 (72960_s_at) expression change upon IL-13 stimulation (HG-U95E, lot 1, Day 7, AI): 3.9 | AA806114 (80826_at) expression change upon IL-13 stimulation (HG-U95E, lot 1, Day 7, AI): 5.3 | AI803648 (89255_at) expression change upon IL-13 stimulation (HG-U95E, lot 1, Day 7, AI): 3.5 | AI859144, KIAA1127 (77546_at) expression change upon IL-13 stimulation (HG-U95E, lot 1, Day 7, AI): 2.6 | AI984061 (89834_at) expression change upon IL-13 stimulation (HG-U95E, lot 1, Day 7, AI): 2.7 | AW024819 (72867_at) expression change upon IL-13 stimulation (HG-U95E, lot 1, Day 7, AI): 2.6 | BCAT1 (72962_at) expression change upon IL-13 stimulation (HG-U95E, lot 1, Day 7, AI): 2.7 | CLDN1 (77660_at) expression change upon IL-13 stimulation (HG-U95E, lot 1, Day 7, AI): 2.6 | EHF (85092_g_at) expression change upon IL-13 stimulation (HG-U95E, lot 1, Day 7, AI): 2.1 | EPPK1 (86507_at) expression change upon IL-13 stimulation (HG-U95E, lot 1, Day 7, AI): 2.6 | FLJ20281 (83376_at) expression change upon IL-13 stimulation (HG-U95E, lot 1, Day 7, AI): 2.1 | FLJ20989 (91420_at) expression change upon IL-13 stimulation (HG-U95E, lot 1, Day 7, AI): 3.4 | FLJ21415 (89902_at) expression change upon IL-13 stimulation (HG-U95E, lot 1, Day 7, AI): 3.4 | FLJ22833 (67329_at) expression change upon IL-13 stimulation (HG-U95E, lot 1, Day 7, AI): 3.6 | GCNT3 (77751_at) expression change upon IL-13 stimulation (HG-U95E, lot 1, Day 7, AI): 2.5 | KIAA1685 (83541_at) expression change upon IL-13 stimulation (HG-U95E, lot 1, Day 7, AI): 2.6 | MASL1 (89651_at) expression change upon IL-13 stimulation (HG-U95E, lot 1, Day 7, AI): 4.3 | MFHAS1 (87816_g_at) expression change upon IL-13 stimulation (HG-U95E, lot 1, Day 7, AI): 3.4 | RIG-1 (77749_at) expression change upon IL-13 stimulation (HG-U95E, lot 1, Day 7, AI): 3.4 | SCYA26 (90189_at) expression change upon IL-13 stimulation (HG-U95E, lot 1, Day 7, AI): 30.4 | vipirin (84893_at) expression change upon IL-13 stimulation (HG-U95E, lot 1, Day 7, AI): 2.7 | NIFK (89320_at) expression change upon IL-13 stimulation [2]: 2.9 | SLC1A5 (34759_at) expression change upon IL-13 stimulation [2]: 2.5 | SLC17A5 (88617_at) expression change upon IL-13 stimulation [2]: 2.7 | SLC21A12 (87860_s_at) expression change upon IL-13 stimulation [2]: 2.7 | rab11-FIP1 (89338_at) expression change upon IL-13 stimulation [2]: 4.4 | AA199856 (72960_s_at) expression change upon IL-13 stimulation (HG-U95E, lot 1, Day 7, IMM): 3.8 | AA806114 (80826_at) expression change upon IL-13 stimulation (HG-U95E, lot 1, Day 7, IMM): 5.3 | AI803648 (89255_at) expression change upon IL-13 stimulation (HG-U95E, lot 1, Day 7, IMM): 7 | BAL (69619_at) expression change upon IL-13 stimulation (HG-U95E, lot 1, Day 7, IMM): 2.2 | BCAT1 (72962_at) expression change upon IL-13 stimulation (HG-U95E, lot 1, Day 7, IMM): 3.4 | EPPK1 (86507_at) expression change upon IL-13 stimulation (HG-U95E, lot 1, Day 7, IMM): 3.6 | EPSTI1 (90421_at) expression change upon IL-13 stimulation (HG-U95E, lot 1, Day 7, IMM): 3.4 | FLJ22833 (67329_at) expression change upon IL-13 stimulation (HG-U95E, lot 1, Day 7, IMM): 3.7 | GCNT3 (77751_at) expression change upon IL-13 stimulation (HG-U95E, lot 1, Day 7, IMM): 3.5 | MFHAS1 (87816_g_at) expression change upon IL-13 stimulation (HG-U95E, lot 1, Day 7, IMM): 3.1 | RIG-1 (77749_at) expression change upon IL-13 stimulation (HG-U95E, lot 1, Day 7, IMM): 5.1 | SCYA26 (90189_at) expression change upon IL-13 stimulation (HG-U95E, lot 1, Day 7, IMM): 35.1 | vipirin (84893_at) expression change upon IL-13 stimulation (HG-U95E, lot 1, Day 7, IMM): 6.6 | AA199856 (72960_s_at) expression change upon IL-13 stimulation (HG-U95E, lot 2, Day 3, AI): 18.8 | AA779704 (68562_at) expression change upon IL-13 stimulation (HG-U95E, lot 2, Day 3, AI): 2.8 | AA806114 (80826_at) expression change upon IL-13 stimulation (HG-U95E, lot 2, Day 3, AI): 7.2 | AI859144, KIAA1127 (77546_at) expression change upon IL-13 stimulation (HG-U95E, lot 2, Day 3, AI): 5.5 | BAL (69619_at) expression change upon IL-13 stimulation (HG-U95E, lot 2, Day 3, AI): 3.1 | BCAT1 (72962_at) expression change upon IL-13 stimulation (HG-U95E, lot 2, Day 3, AI): 10.5 | EHF (8S090_at) expression change upon IL-13 stimulation (HG-U95E, lot 2, Day 3, AI): 3.3 | EHF (85092_g_at) expression change upon IL-13 stimulation (HG-U95E, lot 2, Day 3, AI): 3.3 | EPSTI1 (90421_at) expression change upon IL-13 stimulation (HG-U95E, lot 2, Day 3, AI): 9.4 | FLJ22833 (67329_at) expression change upon IL-13 stimulation (HG-U95E, lot 2, Day 3, AI): 6.1 | MASL1 (89651_at) expression change upon IL-13 stimulation (HG-U95E, lot 2, Day 3, AI): 3.2 | MFHAS1 (87816_g_at) expression change upon IL-13 stimulation (HG-U95E, lot 2, Day 3, AI): 3.5 | OAS2 (90662_at) expression change upon IL-13 stimulation (HG-U95E, lot 2, Day 3, AI): 4.1 | RIG-1 (77749_at) expression change upon IL-13 stimulation (HG-U95E, lot 2, Day 3, AI): 6.4 | RPL4 (80675_at) expression change upon IL-13 stimulation (HG-U95E, lot 2, Day 3, AI): 2.3 | SCYA26 (90189_at) expression change upon IL-13 stimulation (HG-U95E, lot 2, Day 3, AI): 16.7 | vipirin (84893_at) expression change upon IL-13 stimulation (HG-U95E, lot 2, Day 3, AI): 15.4 | H70665 (67357_at) expression change upon IL-13 stimulation [3]: 2.1 | NIFK (89320_at) expression change upon IL-13 stimulation [3]: 2.1 | TBLR1 (87125_at) expression change upon IL-13 stimulation [3]: 4.4 | NIFK (89320_at) expression change upon IL-13 stimulation (HG-U95E, lot 2, Day 7): 3.4 | SLC1A5 (34759_at) expression change upon IL-13 stimulation (HG-U95E, lot 2, Day 7): 2.9 | SLC17A5 (88617_at) expression change upon IL-13 stimulation (HG-U95E, lot 2, Day 7): 2.3
